Test system: LTD4 evoked ileal contractions
Assay: LTD4 antagonism in isolated guinea pig ileum (inhibition of LTD4 evoked ileal contractions)
Type: cell-based, guinea pig (male, Hartley)
Details: Cavia porcellus; for IC50: 50% inhibition of LTD4 responses, interpolated by linear regression from 2-4 concentrations; for inhibition at 0.1 µM: compound concentration 1 × 10^-7 M; for inhibition at 0.1 µM / inhibition at 0.01 µM / inhibition at 0.03 µM / inhibition at 0.3 µM / inhibition at 0.003 µM: read-out: Percent inhibition of LTD4 evoked ileal contractions; for inhibition at 0.01 µM: compound concentration 1 × 10^-8 M; for inhibition at 0.03 µM: compound concentration 3 × 10^-8 M; for inhibition at 0.3 µM: compound concentration 3 × 10^-7 M; for inhibition at 0.003 µM: compound concentration 3 × 10^-9 M
Procedure: Male, Hartley guinea pigs weighing 200-450 grams were killed by decapitation. A section of terminal ileum was removed, the lumen cleaned, and the tissue divided into 2.5 cm. segments. The ilea were mounted in 10 ml. tissue baths containing Krebs-bicarbonate solution of the following composition in mmoles/liter: KCl, 4.6; CaCl2 ·H2 O, 1.2; KH2 PO4, 1.2; MgSO4 ·7H2 O, 1.2; NaCl, 118.2; NaHCO3, 24.8; and dextrose, 10.0. The bath fluid was maintained at 37° C. and aerated with 95 percent oxygen and 5 percent CO2. In addition, the buffer contained 1×10^-6 M atropine to reduce ileal spontaneous activity. Isometric measurements were made with a Grass FTO3C force-displacement transducer and recorded on a Gras polygraph as change in grams of force. A passive force of 0.5 g. was applied to the tissues. After an appropriate equilibration period, single submaximal control responses to pure LTD4 were obtained. Following a five minute exposure of the ileum to an experimental drug, the control concentration of LTD4 was added to the tissue bath. The response of the ileum to LTD4 in the presence of the drug was compared to the response in the absence of the drug. Various degrees of LTD4 antagonism were obtained using 2-4 different concentrations of an experimental compound on a single ileum.

`CCCc1c(COc2ccc3c(c2)C(=O)C(CC(=O)O)CC3)ccc(C(C)=O)c1O` (stereo not shown) [Example 29, 7-[(4-Acetyl-3-hydroxy-2-propylphenyl)methoxy]-1,2,3,4-tetrahydro-1-oxo-2-naphthaleneacetic acid] was tested. Which IC50 did it give?
The IC50 was 75.9 nM.

Which results are given for `CCCc1c(COc2ccc(C(=O)CCCCC(=O)O)cc2)ccc(C(C)=O)c1O` [Example 5, 4-[(4-Acetyl-3-hydroxy-2-propylphenyl)methoxy]-ε-oxobenzenehexanoic acid]?
IC50: 15.8 nM; inhibition at 0.1 µM: 86%; inhibition at 0.01 µM: 40%; inhibition at 0.03 µM: 63%

With `CCCc1c(COc2ccc(C(=O)CCc3nnn[nH]3)cc2)ccc(C(C)=O)c1O` [Example 9, 1-{4-[(4-Acetyl-3-hydroxy-2-propylphenyl)methoxy]phenyl}-3-(1H-tetrazol-5-yl)-1-propanone] as the compound, how does the IC50 read?
The IC50 was 26.3 nM.

And the inhibition at 0.1 µM?
The inhibition at 0.1 µM was 85%.

And the inhibition at 0.01 µM?
The inhibition at 0.01 µM was 25%.

And the inhibition at 0.3 µM?
The inhibition at 0.3 µM was 91%.

And the inhibition at 0.03 µM?
Its inhibition at 0.03 µM is 54%.

How did the IC50 turn out when `CCCc1c(COc2ccc(C(=O)CC3(CC(=O)O)CCCC3)cc2)ccc(C(C)=O)c1O` [Example 24, 1-(2-{4-[(4-Acetyl-3-hydroxy-2-propylphenyl)methoxy]phenyl}-2-oxoethyl)cyclopentaneacetic acid] was run?
The IC50 was 13.5 nM.

And the inhibition at 0.1 µM?
The inhibition at 0.1 µM was 85%.

And the inhibition at 0.01 µM?
The inhibition at 0.01 µM was 35%.

What about the inhibition at 0.03 µM of the same compound?
The inhibition at 0.03 µM was 74%.

Which results are given for `CCCc1c(COc2ccc(C(=O)CC(C)(C)Cc3nnn[nH]3)cc2)ccc(C(C)=O)c1O` [Example 15, 1-{4-[(4-Acetyl-3-hydroxy-2-propylphenyl)methoxy]phenyl}-3,3-dimethyl-4-(1H-tetrazol-5-yl)-1-butanone]?
IC50: 3.24 nM; inhibition at 0.03 µM: 91%; inhibition at 0.003 µM: 50%

How did the IC50 turn out when `CCCc1c(COc2cccc(C(=O)CCCc3nnn[nH]3)c2)ccc(C(C)=O)c1O` [Example 18, 1-{3-[(4-Acetyl-3-hydroxy-2-propylphenyl)methoxy]phenyl}-4-(1H-tetrazol-5-yl)-1-butanone] was run?
The IC50 was 18.2 nM.

And the inhibition at 0.1 µM?
The inhibition at 0.1 µM was 84%.

And the inhibition at 0.01 µM?
Its inhibition at 0.01 µM is 34%.

What about the inhibition at 0.03 µM of the same compound?
The inhibition at 0.03 µM was 65%.

How did the IC50 turn out when `CCCc1c(COc2ccc(C(=O)C(C)Cc3nnn[nH]3)cc2)ccc(C(C)=O)c1O` (stereo not shown) [Example 14, 1-{4-[(4-Acetyl-3-hydroxy-2-propylphenyl)methoxy]phenyl}-2-methyl-3-(1H-tetrazol-5-yl)-1-propanone] was run?
Its IC50 is 20.4 nM.

And the inhibition at 0.01 µM?
Its inhibition at 0.01 µM is 35%.

And the inhibition at 0.03 µM?
Its inhibition at 0.03 µM is 58%.

For `CCCc1c(COc2ccc(C(=O)CCCCc3nnn[nH]3)cc2)ccc(C(C)=O)c1O` [Example 11, 1-{4-[(4-Acetyl-3-hydroxy-2-propylphenyl)methoxy]phenyl}-5-(1H-tetrazol-5-yl)-1-pentanone], which IC50 is on record?
The IC50 was 24.5 nM.

And the inhibition at 0.01 µM?
The inhibition at 0.01 µM was 43%.

What about the inhibition at 0.03 µM of the same compound?
Its inhibition at 0.03 µM is 51%.

How did the IC50 turn out when `CCc1c(COc2ccc(C(=O)CC(C)(C)CC(=O)O)cc2)ccc(C(C)=O)c1O` [Example 23, 4-[(4-Acetyl-2-ethyl-3-hydroxyphenyl)methoxy]-β,β-dimethyl-δ-oxobenzenepentanoic acid] was run?
The IC50 was 21.4 nM.

And the inhibition at 0.1 µM?
The inhibition at 0.1 µM was 88%.

What about the inhibition at 0.01 µM of the same compound?
The inhibition at 0.01 µM was 25%.

And the inhibition at 0.03 µM?
The inhibition at 0.03 µM was 66%.

`CCCc1c(COc2ccc(C(=O)CCCc3nnn[nH]3)c(O)c2)ccc(C(C)=O)c1O` [Example 13, 1-{4-[(4-Acetyl-3-hydroxy-2-propylphenyl)methoxy]-2-hydroxyphenyl}-4-(1H-tetrazol-5-yl)-1-butanone] was tested. Which IC50 did it give?
Its IC50 is 24.5 nM.

And the inhibition at 0.01 µM?
Its inhibition at 0.01 µM is 28%.

And the inhibition at 0.3 µM?
Its inhibition at 0.3 µM is 82%.

For `CCCc1c(COc2ccc(C(=O)Cc3nnn[nH]3)cc2)ccc(C(C)=O)c1O` [Example 8, 1-{4-[(4-acetyl-3-hydroxy-2-propylphenyl)methoxy]phenyl}-2-(1H-tetrazol-5-yl)ethanone], which IC50 is on record?
The IC50 was 21.9 nM.

What about the inhibition at 0.01 µM of the same compound?
The inhibition at 0.01 µM was 40%.

What about the inhibition at 0.03 µM of the same compound?
Its inhibition at 0.03 µM is 54%.

`CCCc1c(COc2ccc(C(=O)CCCC(=O)O)cc2)ccc(C(C)=O)c1O` [Example 7, 4-[(4-Acetyl-3-hydroxy-2-propylphenyl)methoxy]-δ-oxobenzenepentanoicacid] was tested. Which IC50 did it give?
The IC50 was 37.2 nM.

What about the inhibition at 0.1 µM of the same compound?
The inhibition at 0.1 µM was 68%.

And the inhibition at 0.01 µM?
Its inhibition at 0.01 µM is 17%.

How did the IC50 turn out when `CCCc1c(COc2ccc(C(=O)C(C)(C)Cc3nnn[nH]3)cc2)ccc(C(C)=O)c1O` [Example 12, 1-{4-[(4-Acetyl-3-hydroxy-2-propylphenyl)methoxy]phenyl}-2,2-dimethyl-3-(1H-tetrazol-5-yl)-1-propanone] was run?
Its IC50 is 51.3 nM.

What about the inhibition at 0.3 µM of the same compound?
Its inhibition at 0.3 µM is 60%.

And the inhibition at 0.03 µM?
Its inhibition at 0.03 µM is 41%.

With `CCCc1c(COc2ccc3c(c2)CCC(CC(=O)O)C3=O)ccc(C(C)=O)c1O` (stereo not shown) [Example 28, 6-[(4-Acetyl-3-hydroxy-2-propylphenyl)methoxy]-1,2,3,4-tetrahydro-1-oxo-2-naphthaleneacetic acid] as the compound, how does the IC50 read?
Its IC50 is 10.2 nM.

With `CCCc1c(COc2ccc(C(=O)CC(C)(C)CC(=O)O)cc2)ccc(C(C)=O)c1O` [Example 6, 4-[(4-Acetyl-3-hydroxy-2-propylphenyl)methoxy]-β,β-dimethyl-δ-oxobenzenepentanoic acid] as the compound, how does the IC50 read?
Its IC50 is 18.6 nM.

What about the inhibition at 0.1 µM of the same compound?
Its inhibition at 0.1 µM is 78%.

And the inhibition at 0.01 µM?
Its inhibition at 0.01 µM is 41%.

What about the inhibition at 0.003 µM of the same compound?
The inhibition at 0.003 µM was 16%.

Which results are given for `CCc1c(COc2ccc(C(=O)CC(C)(C)Cc3nnn[nH]3)cc2)ccc(C(C)=O)c1O` [Example 16, 1-{4-[(4-Acetyl-3-hydroxy-2-ethylphenyl)methoxy]phenyl}-3,3-dimethyl-4-(1H-tetrazol-5-yl)-1-butanone]?
IC50: 4.79 nM; inhibition at 0.1 µM: 95%; inhibition at 0.01 µM: 63%; inhibition at 0.003 µM: 41%

Which results are given for `CCCc1c(COc2ccc(C(=O)CCCc3nnn[nH]3)cc2)ccc(C(C)=O)c1O` [Example 10, 1-{4-[(4-Acetyl-3-hydroxy-2-propylphenyl)methoxy]-phenyl}-4-(1H-tetrazol-5-yl)-1-butanone]?
IC50: 4.79 nM; inhibition at 0.1 µM: 95%; inhibition at 0.01 µM: 57%; inhibition at 0.3 µM: 94%; inhibition at 0.03 µM: 76%; inhibition at 0.003 µM: 46%

For `CCCc1c(COc2ccc(C(=O)CCC(=O)O)cc2)ccc(C(C)=O)c1O` [Example 1, 4-[(4-Acetyl-3-hydroxy-2-propylphenyl)methoxy]-γ-oxobenzenebutanoic acid], which IC50 is on record?
Its IC50 is 33.1 nM.

What about the inhibition at 0.3 µM of the same compound?
The inhibition at 0.3 µM was 97%.

And the inhibition at 0.03 µM?
Its inhibition at 0.03 µM is 48%.

`CCCc1c(COc2ccc(C(=O)CCCCCc3nnn[nH]3)cc2)ccc(C(C)=O)c1O` [Example 19, 1-{4-[(4-Acetyl-3-hydroxy-2-propylphenyl)methoxy]phenyl}-6-(1H-tetrazol-5-yl)-1-hexanone] was tested. Which IC50 did it give?
The IC50 was 32.4 nM.

What about the inhibition at 0.1 µM of the same compound?
The inhibition at 0.1 µM was 80%.

What about the inhibition at 0.03 µM of the same compound?
Its inhibition at 0.03 µM is 47%.

Reference: patent US4874777A, “Leukotriene antagonists” (Eli Lilly and Company, priority 1987, dated 1989)
